According to patent US12686665B2, “Bicyclic fused ring derivative or salt thereof and pharmaceutical composition comprising same” (YUHAN CORPORATION, priority 2021, dated 2026):
Structures can show the parent of a compound that is named as a salt.

Columns and labels:
Type in all cases: biochemical
[1] = molecular target: T1, recombinant human DAO (diamine oxidase) (Homo sapiens, UniProt P19801); test: Amplex Red HRP-coupled amine oxidase assay, recombinant human DAO; conditions: 1 mM putrescine substrate, read-out: Inhibitory activity (IC50, nM) DAO
T1 construct: purchased R&D systems
T1 sequence (P19801 20-751): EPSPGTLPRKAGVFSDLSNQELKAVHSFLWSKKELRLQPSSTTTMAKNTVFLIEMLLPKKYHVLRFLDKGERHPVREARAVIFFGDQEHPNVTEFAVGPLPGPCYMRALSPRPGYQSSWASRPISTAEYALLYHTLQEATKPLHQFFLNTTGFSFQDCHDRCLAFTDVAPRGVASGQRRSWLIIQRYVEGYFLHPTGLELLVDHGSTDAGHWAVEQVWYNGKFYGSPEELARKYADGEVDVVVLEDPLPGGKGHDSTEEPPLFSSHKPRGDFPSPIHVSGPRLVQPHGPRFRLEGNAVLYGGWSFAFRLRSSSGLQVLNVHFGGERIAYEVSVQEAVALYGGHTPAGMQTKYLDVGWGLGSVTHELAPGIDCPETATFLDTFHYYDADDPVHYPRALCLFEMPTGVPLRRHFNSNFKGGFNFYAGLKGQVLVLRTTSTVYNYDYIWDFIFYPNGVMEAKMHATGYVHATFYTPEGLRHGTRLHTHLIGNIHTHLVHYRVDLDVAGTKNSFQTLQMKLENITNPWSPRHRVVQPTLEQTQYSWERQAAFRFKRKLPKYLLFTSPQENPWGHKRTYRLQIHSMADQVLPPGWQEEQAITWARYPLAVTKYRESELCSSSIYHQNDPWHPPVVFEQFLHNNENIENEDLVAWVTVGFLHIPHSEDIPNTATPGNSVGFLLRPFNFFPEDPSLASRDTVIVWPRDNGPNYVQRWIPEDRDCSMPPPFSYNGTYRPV
Method: (§1) The activities of the compounds according to the present invention against recombinant human Lysyl Oxidase-Like 2 (recombinant human LOXL2, R&D systems) were evaluated by measuring the levels of hydrogen peroxide in the HRP (horseradish peroxidase) coupled reactions, with the Amplex Red Hydrogen Peroxide Assay Kit (Molecular Probes, Invitrogen, USA). The tests were carried out at 37° C., and putrescine was used as a substrate. In the HRP coupling reaction, the oxidation of 10-acetyl-3,7-dihydroxyphenoxazine (Amplex Red reagent) by hydrogen peroxide generates a fluorescent product, i.e., resorufin. Briefly, the test compounds were dissolved in dimethyl sulfoxide (DMSO) at a concentration of 20 mM. Dose-response measurements were carried out by serial dilutions in DMSO to generate a six-point curve. The upper concentration was adjusted according to the potency of the compound, and then diluted with the reaction buffer to obtain a final DMSO concentration of 1%. Purified human LOXL2 in 50 mM sodium phosphate buffer (pH7.4) was added to each well of a 96 well black plate. The test compounds dissolved in DMSO were incubated with the human LOXL2 enzyme at 37° C. for 60 minutes. After the incubation for 60 minutes, a reaction mixture containing 400 μM Amplex Red reagent, 30 mM putrescine, and 2 U/mL HRP in 50 mM sodium phosphate buffer (pH 7.4) was added to each well. Fluorescence was measured with a microplate reader (Flexstation3, Molecular Devices), under the conditions of excitation at 530 nm and emission at 590 nm, 1 hour after the addition of the mixture. Inhibition by each compound was measured as % reduction in signal, compared to the control without an inhibitor (diluted DMSO only). The data were fixed to a four-variable logistic model, and […] values were calculated using the GraphPad Prism program.
(§2) And, the activities of the compounds according to the present invention against recombinant human MAO-A (monoamine oxidase-A, Sigma-Aldrich) and recombinant human MAO-B (monoamine oxidase-B, Sigma-Aldrich) were evaluated in a similar manner to the activity evaluation method for recombinant human LOXL2, using 0.5 mM tyramine and 1 mM benzylamine as a substrate, respectively. In addition, the activities of the compounds according to the present invention against recombinant human DAO (diamine oxidase, R&D systems) were evaluated in a similar manner to the activity evaluation method for recombinant human LOXL2, using 1 mM putrescine as a substrate.

[2] = molecular target: T2, recombinant human MAO-B (monoamine oxidase-B) (Homo sapiens, UniProt P27338); test: Amplex Red HRP-coupled amine oxidase assay, recombinant human MAO-B; conditions: 1 mM benzylamine substrate, read-out: Inhibitory activity (IC50, nM) MAO-B
T2 construct: purchased Sigma-Aldrich
T2 sequence (P27338 1-520): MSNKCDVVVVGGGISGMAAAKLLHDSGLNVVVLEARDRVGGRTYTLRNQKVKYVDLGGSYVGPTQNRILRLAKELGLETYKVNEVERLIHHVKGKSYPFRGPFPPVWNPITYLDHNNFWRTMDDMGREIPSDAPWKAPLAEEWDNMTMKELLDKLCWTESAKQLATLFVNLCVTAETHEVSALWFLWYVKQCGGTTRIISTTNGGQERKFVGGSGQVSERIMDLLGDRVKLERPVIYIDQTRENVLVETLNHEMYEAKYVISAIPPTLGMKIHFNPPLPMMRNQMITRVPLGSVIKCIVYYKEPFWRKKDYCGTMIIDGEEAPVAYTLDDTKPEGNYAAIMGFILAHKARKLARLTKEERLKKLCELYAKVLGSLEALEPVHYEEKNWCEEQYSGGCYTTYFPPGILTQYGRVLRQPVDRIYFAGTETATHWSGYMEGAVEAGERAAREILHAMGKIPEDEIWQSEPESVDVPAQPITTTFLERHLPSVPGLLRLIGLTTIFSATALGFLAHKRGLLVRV
Method: as §1, §2

[3] = molecular target: T3, recombinant human Lysyl Oxidase-Like 2 (LOXL2) (Homo sapiens, UniProt Q9Y4K0); test: Amplex Red HRP-coupled amine oxidase assay, recombinant human LOXL2; conditions: 60 min incubation with enzyme at 37° C., putrescine substrate, read-out: Inhibitory activity (IC50, nM) human LOXL2
T3 construct: purchased R&D systems
T3 sequence (Q9Y4K0 26-774): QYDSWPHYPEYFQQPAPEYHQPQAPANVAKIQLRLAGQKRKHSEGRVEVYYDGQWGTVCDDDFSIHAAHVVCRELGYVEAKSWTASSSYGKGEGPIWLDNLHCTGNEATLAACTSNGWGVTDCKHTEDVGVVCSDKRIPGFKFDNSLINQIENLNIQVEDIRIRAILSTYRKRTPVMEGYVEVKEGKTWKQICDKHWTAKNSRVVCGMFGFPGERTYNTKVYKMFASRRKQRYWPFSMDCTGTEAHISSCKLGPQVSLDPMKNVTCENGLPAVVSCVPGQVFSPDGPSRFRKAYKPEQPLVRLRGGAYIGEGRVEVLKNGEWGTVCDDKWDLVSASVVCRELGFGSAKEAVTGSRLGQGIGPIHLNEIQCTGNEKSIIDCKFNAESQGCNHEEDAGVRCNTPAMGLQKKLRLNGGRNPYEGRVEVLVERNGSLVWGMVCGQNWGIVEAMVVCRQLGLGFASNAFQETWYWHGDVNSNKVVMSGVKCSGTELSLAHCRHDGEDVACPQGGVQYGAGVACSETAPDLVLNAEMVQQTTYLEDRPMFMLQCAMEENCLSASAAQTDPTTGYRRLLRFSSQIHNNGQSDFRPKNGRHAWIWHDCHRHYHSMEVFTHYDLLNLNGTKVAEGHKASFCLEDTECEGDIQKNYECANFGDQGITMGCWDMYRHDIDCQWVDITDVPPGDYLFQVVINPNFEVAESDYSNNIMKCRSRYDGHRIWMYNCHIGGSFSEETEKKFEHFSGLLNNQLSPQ
How it was run: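 Putrescine substrate (30 mM) in 50 mM sodium phosphate pH 7.4, 37 °C; compounds preincubated 60 min with enzyme, 1% DMSO final, six-point curves. H2O2 detected via 400 μM Amplex Red/2 U/mL HRP, fluorescence (ex 530/em 590 nm) after 1 h; IC50 from four-parameter logistic fit of % signal reduction.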

[4] = molecular target: T4, recombinant human MAO-A (monoamine oxidase-A) (Homo sapiens, UniProt P21397); test: Amplex Red HRP-coupled amine oxidase assay, recombinant human MAO-A; conditions: 0.5 mM tyramine substrate, read-out: Inhibitory activity (IC50, nM) MAO-A
T4 construct: purchased Sigma-Aldrich
T4 sequence (P21397 1-527): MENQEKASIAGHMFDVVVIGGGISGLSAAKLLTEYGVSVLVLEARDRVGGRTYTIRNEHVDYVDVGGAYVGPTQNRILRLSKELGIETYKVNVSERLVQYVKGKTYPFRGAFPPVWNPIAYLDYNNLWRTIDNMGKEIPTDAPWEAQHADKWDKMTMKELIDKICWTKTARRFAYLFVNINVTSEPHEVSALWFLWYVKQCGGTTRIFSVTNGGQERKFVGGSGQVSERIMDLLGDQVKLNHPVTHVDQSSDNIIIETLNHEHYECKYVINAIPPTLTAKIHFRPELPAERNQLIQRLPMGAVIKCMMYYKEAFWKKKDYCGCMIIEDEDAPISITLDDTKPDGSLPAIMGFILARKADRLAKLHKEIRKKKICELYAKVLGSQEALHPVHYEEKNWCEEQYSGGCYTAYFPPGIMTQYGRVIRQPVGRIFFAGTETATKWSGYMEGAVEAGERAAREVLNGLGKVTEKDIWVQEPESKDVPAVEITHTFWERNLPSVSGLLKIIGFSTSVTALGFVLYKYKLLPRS
Method: as §1, §2

SMILES | IC50 [1] [nM] | IC50 [2] [nM] | IC50 [3] [nM] | IC50 [4] [nM]
CS(=O)(=O)c1cccc(-c2cc(C(F)(F)F)cc3c2ncn3C/C(F)=C/CN)c1 [Example 13, (Z)-3-fluoro-4-(4-(3-(methylsulfonyl)phenyl)-6-(trifluoromethyl)-1H-benzo[d]imidazol-1-yl) but-2-en-1-amine hydrochloride] | > 100000 | > 100000 | 104 | > 100000
CNS(=O)(=O)c1cccc(-c2cc(C(F)(F)F)cc3c2ncn3C/C(F)=C/CN)c1 [Example 20, (Z)-3-(1-(4-amino-2-fluorobut-2-en-1-yl)-6-(trifluoromethyl)-1H-benzo[d]imidazol-4-yl)-N-methylbenzenesulfonamide hydrochloride] | > 100000 | > 100000 | 77 | > 100000
COC(=O)c1cc(-c2cccc(S(=O)(=O)N3CCC(F)(F)C3)c2)c2ncn(C/C(F)=C/CN)c2c1 [Example 22, methyl (Z)-1-(4-amino-2-fluorobut-2-en-1-yl)-4-(3-((3,3-difluoropyrrolidine-1-yl)sulfonyl)phenyl)-1H-benzo[d]imidazol-6-carboxylate hydrochloride] | 5070 | > 100000 | 19.9 | 53300
CNS(=O)(=O)c1ccc(OC)c(-c2cc(C(=O)OC)cc3c2ncn3C/C(F)=C/CN)c1 [Example 24, methyl (Z)-1-(4-amino-2-fluorobut-2-en-1-yl)-4-(2-methoxy-5-(N-methylsulfamoyl)phenyl)-1H-benzo[d]imidazol-6-carboxylate hydrochloride] | 21800 | > 100000 | 15.9 | > 100000
COC(=O)c1cc(-c2cc(S(=O)(=O)NC3CC3)ccc2OC)c2ncn(C/C(F)=C/CN)c2c1 [Example 27, methyl (Z)-1-(4-amino-2-fluorobut-2-en-1-yl)-4-(5-(N-cyclopropylsulfamoyl)-2-methoxyphenyl)-1H-benzo[d]imidazol-6-carboxylate hydrochloride] | 16100 | > 100000 | 31.3 | 45700

Stronger by IC50 [1], values ahead:

IC50 [1] [nM] | IC50 [2] [nM] | IC50 [3] [nM] | IC50 [4] [nM] | SMILES
3460 | > 100000 | 29.7 | > 100000 | CNS(=O)(=O)c1cccc(-c2cc(C(=O)OC)cc3c2ncn3C/C(F)=C/CN)c1 [Example 30, methyl (Z)-1-(4-amino-2-fluorobut-2-en-1-yl)-4-(3-(N-methylsulfamoyl)phenyl)-1H-benzo[d]imidazol-6-carboxylate hydrochloride]
1370 | > 100000 | 34.9 | > 100000 | COC(=O)c1cc(-c2cccc(S(=O)(=O)NC3CC3)c2)c2ncn(C/C(F)=C/CN)c2c1 [Example 29, methyl (Z)-1-(4-amino-2-fluorobut-2-en-1-yl)-4-(3-(N-cyclopropylsulfamoyl)phenyl)-1H-benzo[d]imidazol-6-carboxylate hydrochloride]
1230 | > 100000 | 22.7 | > 100000 | COC(=O)c1cc(-c2cccc(S(C)(=O)=O)c2)c2ncn(C/C(F)=C/CN)c2c1 [Example 25, methyl (Z)-1-(4-amino-2-fluorobut-2-en-1-yl)-4-(3-(methylsulfonyl)phenyl)-1H-benzo[d]imidazol-6-carboxylate hydrochloride]
986 | > 100000 | 16.7 | > 100000 | COC(=O)c1cc(-c2cccc(S(=O)(=O)N3CCCC3)c2)c2ncn(C/C(F)=C/CN)c2c1 [Example 23, methyl (Z)-1-(4-amino-2-fluorobut-2-en-1-yl)-4-(3-(pyrrolidin-1-ylsulfonyl)phenyl)-1H-benzo[d]imidazol-6-carboxylate hydrochloride]
380 | > 100000 | 22.7 | 12200 | COC(=O)c1cc(-c2ccc(OC)c(S(=O)(=O)N(C)C)c2)c2ncn(C/C(F)=C/CN)c2c1 [Example 21, methyl (Z)-1-(4-amino-2-fluorobut-2-en-1-yl)-4-(3-(N,N-dimethylsulfamoyl)-4-methoxyphenyl)-1H-benzo[d]imidazol-6-carboxylate hydrochloride]
